In PubChem BioAssay (NCI):
Values joined by “and” are separate entries in the source; they are usually repeats but may differ in a detail not shown here. Equal entries are not always repeated.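 1) Cells in 96-well plates. 2) Compound, 48 h, 5 concentrations. 3) Linear interpolation between surrounding doses. 4) Unreached endpoint = highest concentration. The concentration for 50% growth inhibition is given as GI50. The concentration for full growth arrest is given as TGI.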

How the values were obtained:
Test in all cases: NCI anticancer screen, dose series, 48 h
HOP-92 NSCLC = system: HOP-92 NSCLC
EKVX NSCLC = system: EKVX NSCLC
IGROV1 ovarian = system: IGROV1 ovarian
UACC-62 melanoma = system: UACC-62 melanoma
SNB-75 CNS = system: SNB-75 CNS
SNB-19 CNS = system: SNB-19 CNS
NCI/ADR-RES ovarian = system: NCI/ADR-RES ovarian
K-562 leukemia = system: K-562 leukemia
OVCAR-4 ovarian = system: OVCAR-4 ovarian
HS 578T breast = system: HS 578T breast

Compound	GI50 (HOP-92 NSCLC)	TGI (HOP-92 NSCLC)	GI50 (EKVX NSCLC)	TGI (EKVX NSCLC)	GI50 (IGROV1 ovarian)	TGI (IGROV1 ovarian)	GI50 (UACC-62 melanoma)	TGI (UACC-62 melanoma)	GI50 (SNB-75 CNS)	TGI (SNB-75 CNS)	GI50 (SNB-19 CNS)	TGI (SNB-19 CNS)	GI50 (NCI/ADR-RES ovarian)	GI50 (K-562 leukemia)	TGI (K-562 leukemia)	TGI (OVCAR-4 ovarian)	GI50 (HS 578T breast)	TGI (HS 578T breast)	TGI (NCI/ADR-RES ovarian)	GI50 (OVCAR-4 ovarian)
COc1cc(C(=O)c2c(-c3ccccc3)oc3c(OC)cccc23)cc(OC)c1OC	0.108 µM	21.5 µM	0.0674 µM	> 100 µM	0.0677 µM	> 100 µM	0.0522 µM	> 96.5 µM	0.0234 µM	0.552 µM	0.0789 µM	> 100 µM	0.0409 µM	0.0368 µM	> 100 µM	> 100 µM	0.0984 µM	> 24.1 µM		
O=C1NNC2(C(=O)N1)c1ccccc1-c1ccccc12		> 10 µM		> 10 µM		> 10 µM		> 10 µM		> 10 µM		> 10 µM			> 10 µM	> 10 µM		> 10 µM	> 10 µM	
COc1cccc(-c2c[nH]c3c(N/N=C/c4ccncc4)ncnc23)c1	4.96 µM	19.2 µM	7.06 µM	24.1 µM	3.9 µM	> 25 µM	2.8 µM	6.31 µM	1.47 µM	6.78 µM	7.15 µM	> 25 µM	4.54 µM	1 µM	> 25 µM	11.1 µM	0.816 µM	9.97 µM	> 19.3 µM	2.65 µM
Cn1ncnc1[C@H]1c2n[nH]c(=O)c3cc(F)cc(c23)N[C@@H]1c1ccc(F)cc1		> 100 µM			74.1 µM	> 100 µM	> 100 µM	> 100 µM	15.1 µM	> 100 µM	22.8 µM	> 100 µM	> 100 µM	> 100 µM	> 100 µM	> 100 µM	> 100 µM	> 100 µM	> 100 µM	14.6 µM
O=C1Nc2ccc(Br)cc2C1=Nc1cccnc1		> 100 µM		65.1 µM		60.7 µM		35 µM		> 100 µM		> 100 µM			52.7 µM	25.1 µM		60.5 µM	87.1 µM	
O=C1C(Nc2ccc(Cl)cc2)=C(I)C(=O)c2ncccc21	1.43 µM	2.9 µM	1.71 µM	3.32 µM	0.359 µM	1.41 µM	1.33 µM	3.12 µM	1.31 µM	3.09 µM	1.61 µM	3.23 µM	2.01 µM	0.278 µM	10.4 µM	2.19 µM	2.13 µM	6.44 µM	5.37 µM	0.989 µM
C#CC#CC#CC#CC#CC#CC#CC#CCC1OCC(COC(=O)O[C@@H](C(=O)O[C@H]2C[C@@]3(O)[C@@H](OC(=O)c4ccccc4)[C@@H]4[C@]5(OC(C)=O)CO[C@@H]5C[C@H](O)[C@@]4(C)C(=O)[C@H](OC(C)=O)C(=C2C)C3(C)C)[C@@H](NC(=O)c2ccccc2)c2ccccc2)O1 (some centres not stated)		> 33.3 µM	> 26.3 µM	> 33.3 µM	0.235 µM	> 33.3 µM	0.511 µM	> 33.3 µM	0.0244 µM	0.189 µM	0.612 µM	> 33.3 µM	> 33.3 µM	0.121 µM	> 33.3 µM	> 33.3 µM	0.108 µM		> 33.3 µM	> 33.3 µM
COc1cccc(N2C(=O)C3c4[nH]c5ccccc5c4C4CCCC4C3C2=O)c1 (configuration not stated)		> 10 µM		> 10 µM		> 10 µM		> 10 µM		5.77 µM		> 10 µM			> 10 µM	4.76 µM		8.91 µM	> 10 µM	
COc1ccc2c(CN3CCCC[C@H]3C(=O)O)cc3cc4c(cc3c2c1)OCO4	1.86 µM	5.19 µM	3 µM	6.77 µM			1.02 µM	2.34 µM	0.397 µM	2.28 µM	1.59 µM	5.74 µM	7.11 µM	1.5 µM	11.1 µM		1.53 µM	4.4 µM	65.7 µM	
Cc1cc(NC(=O)NC(=O)c2ccccc2NC(=O)C(C)N)ccc1Oc1ncc(Br)cn1 (configuration not stated)		25.6 µM		28.6 µM		29.7 µM		15.5 µM		2.47 µM		56.3 µM			> 38.5 µM	36.7 µM		1.49 µM	15.9 µM	
O=c1cnn(C2OC(CO)C(O)C2O)c(=S)[nH]1 (configuration not stated)		> 100 µM		> 100 µM		> 100 µM		> 100 µM		> 100 µM		> 100 µM			> 44.6 µM	> 100 µM		> 100 µM	> 100 µM	
COC(C(=O)NN)c1ccccc1 (configuration not stated)		> 100 µM		> 100 µM		> 100 µM		> 100 µM		> 100 µM		> 100 µM			> 100 µM			> 100 µM	> 100 µM	
Cc1ccccc1OCC(O)CN1CCN(c2ccc(Cl)cc2)CC1 (configuration not stated)	10 µM	22 µM	13.7 µM	30.9 µM			13.8 µM	27.5 µM	15.4 µM	31 µM	17.6 µM	35.5 µM	14.8 µM	10.6 µM	30.7 µM	30.2 µM	21.4 µM	68.7 µM	29.5 µM	16 µM
Cc1[nH]c2ccccc2c1CCCO	> 100 µM	> 100 µM	> 100 µM	> 100 µM	82.9 µM	> 100 µM	> 100 µM	> 100 µM	> 100 µM	> 100 µM	> 100 µM	> 100 µM	> 100 µM	> 100 µM	> 100 µM	> 100 µM	54.9 µM	> 100 µM	> 100 µM	> 100 µM
C[C@H]1CC[C@@]2(NC1)O[C@H]1C[C@H]3[C@@H]4CC[C@H]5C[C@@H](O)CC[C@]5(C)[C@H]4CC[C@]3(C)[C@H]1[C@@H]2C		> 100 µM		> 100 µM	12.3 µM	24.5 µM and > 100 µM	9.42 µM	17 µM and > 100 µM	10.9 µM	24.7 µM and > 100 µM		50 µM and > 100 µM	8.71 µM	6.87 µM	23 µM and > 100 µM	50 µM and > 100 µM	21.8 µM	50 µM and > 100 µM	22.4 µM and > 100 µM	17.3 µM
Cc1c(C(=O)Nc2ccccc2)sc2ncn(Cc3cccc(Cl)c3)c(=O)c12	16.5 µM	40.5 µM	30.2 µM	> 100 µM	15.6 µM	> 100 µM	18.8 µM	> 100 µM	33.3 µM	> 100 µM	30.1 µM	> 100 µM	25.7 µM	4.87 µM	> 100 µM	> 100 µM	42.6 µM	> 100 µM	> 100 µM	27.8 µM
C=CCN=C(N/N=C/c1ccc([N+](=O)[O-])o1)NS(=O)(=O)c1cc(C(=O)Nc2ccc(Cl)cc2)c(Cl)cc1SC	4.94 µM	> 100 µM	2.63 µM	6.58 µM	> 69.9 µM	> 100 µM	2.81 µM	> 27.7 µM	> 100 µM	> 100 µM	> 100 µM	> 100 µM	> 100 µM	2.41 µM	> 21.2 µM	> 34.1 µM	> 41.9 µM	> 100 µM	> 100 µM	
O=C(Nc1cccc(-n2cc(-c3ccncc3)c(-c3ccc(Cl)c(O)c3)n2)c1)Nc1cc(C(F)(F)F)cc(C(F)(F)F)c1	0.196 µM	1.15 µM			0.795 µM	2.55 µM	0.766 µM	1.96 µM	0.896 µM	2.3 µM	0.979 µM	6.65 µM	1.23 µM	0.52 µM	2.98 µM	3.28 µM	1.2 µM	4.01 µM	5.67 µM	0.795 µM
CC(=O)NCCC1CN(C(=O)/C=C/I)c2ccccc21 (configuration not stated)		4.43 µM		33.3 µM		18.7 µM		9.89 µM		30.7 µM		27.9 µM			> 100 µM	4.45 µM		37 µM	33.3 µM	
COc1ccc2c(c1)c(CC(=O)[Se]C)c(C)n2C(=O)c1ccc(Cl)cc1	> 0.336 µM	> 0.533 µM	> 0.229 µM	> 0.459 µM	> 0.199 µM	> 0.615 µM	> 0.445 µM	> 1 µM		> 0.238 µM	> 0.421 µM	> 0.752 µM	> 0.237 µM	> 0.583 µM	> 1 µM	> 1 µM	> 0.297 µM	> 0.942 µM	> 0.695 µM	> 0.443 µM
O=C1c2cc3c(cc2[C@@H]2[C@H]1c1ccc([N+](=O)[O-])cc1C(=O)N2CCCBr)OCO3	< 0.01 µM	< 0.01 µM	0.0379 µM	0.501 µM	< 0.0136 µM		< 0.01 µM	< 0.01 µM	< 0.01 µM	0.0775 µM	< 0.01 µM	> 100 µM	< 0.01 µM	< 0.0121 µM	0.444 µM	7 µM	0.381 µM	11.5 µM	0.0177 µM	0.0771 µM
NCCCC[C@@H]1NC(=O)[C@H]2CCCN2C(=O)[C@H](Cc2ccccc2)CNC(=O)[C@H](Cc2ccccc2)NC1=O	> 37.5 µM	> 37.5 µM	> 37.5 µM	> 37.5 µM	> 37.5 µM	> 37.5 µM	> 37.5 µM	> 37.5 µM	> 37.5 µM	> 37.5 µM	> 37.5 µM	> 37.5 µM	> 37.5 µM	> 17.9 µM	> 37.5 µM	> 37.5 µM	> 37.5 µM	> 37.5 µM	> 37.5 µM	> 37.5 µM
COc1cc(OC)c(C/C=C/c2ccccc2)cc1O		26.5 µM		33.6 µM		29.9 µM		29 µM		33.9 µM		29.3 µM			33 µM	33.5 µM		47.3 µM	31.4 µM	
N#C/C(=C\c1ccsc1)c1nc2ccccc2o1	14.4 µM	42.8 µM	67.5 µM	> 100 µM	33.3 µM	> 100 µM	61.6 µM	> 100 µM	24.5 µM	65.5 µM	> 100 µM	> 100 µM	> 100 µM	> 100 µM	> 100 µM	> 100 µM	26 µM	92.9 µM	> 100 µM	> 100 µM
CC1=C(c2cccc(O)c2)[C@H](c2ccc(OCCN3CC(CF)C3)cc2)Oc2ccc(O)cc21	2.52 µM	13.8 µM	9.61 µM	21.7 µM	4.42 µM	16.6 µM	10.4 µM	22.6 µM	10.5 µM	22.3 µM	10.1 µM	22.1 µM	15 µM	3.33 µM	17.9 µM	21.7 µM	5.12 µM	26.4 µM	31 µM	9.62 µM
Cc1c(Cl)cccc1C(=O)Nc1nc2c(s1)CN(C(=O)c1ccc(C(F)(F)F)cc1)CC2	0.877 µM	36.4 µM	0.285 µM	> 50 µM	0.177 µM	> 50 µM	0.13 µM	> 50 µM	0.0814 µM	> 50 µM	0.171 µM	> 50 µM	0.0418 µM	0.0261 µM	> 50 µM	> 50 µM	0.0699 µM	> 50 µM	2.31 µM	0.663 µM
CC1(C)C2CCC13C(=O)C1OC3(C2)C2C(=O)c3ccccc3C(=O)C12 (configuration not stated)	> 100 µM	> 100 µM							> 100 µM	> 100 µM	> 100 µM	> 100 µM	12.1 µM	> 100 µM	> 100 µM		> 100 µM	> 100 µM	> 100 µM	
O=C1NC(Nc2ccccc2)=NC(C(F)(F)F)(C(F)(F)F)N1		53.4 µM		> 100 µM		> 100 µM		> 100 µM		87.6 µM					> 100 µM	> 100 µM		> 100 µM	> 100 µM	
C=C1C(O)C2C(=C(CC)C13CC3)C(=O)C(C)(C)C2OC (configuration not stated)	48.4 µM	> 100 µM	82.6 µM	> 100 µM	23.8 µM	> 100 µM	84.9 µM	> 100 µM			> 100 µM	> 100 µM	92.7 µM	31.3 µM	> 100 µM	> 100 µM	> 100 µM	> 100 µM	> 100 µM	> 100 µM
